Measured values from paper doi:10.1101/2024.08.25.609621 (bioRxiv, 2024).
Converted amounts (≈) assume the structure as drawn. Read-outs that look alike come from different tables or passages of the source.

Legend:
Microsomal stability = type: in vitro ADME, mouse; conditions: pH 7.4
Protocol: The assay was carried out in 96-well plates at 37°C. Reaction mixtures (25 μl) contained a final concentration of 1 μM compound, 0.5 mg/ml liver microsomes protein, and 1 mM NADPH and/or 1 mM UDPGA (with alamethicin) in 100 mM potassium phosphate (pH 7.4) with 3 mM MgCl2. After 0, 15, 30, and 60 minutes, 150 μl of quench solution (100% acetonitrile with 0.1% formic acid) with internal standard was transferred to each well. Reactions containing the same components except the NADPH were prepared as the negative control. Plates were sealed, vortexed, and centrifuged at 4°C for 15 minutes at 4000 rpm.
The extent of metabolism was calculated as the disappearance of compounds, compared to the 0-min time incubation.

[1] = biological target: SARS-CoV-2 NSP3 macrodomain (Mac1), P43 crystal form (Severe acute respiratory syndrome coronavirus 2, UniProt P0DTD1); type: binding
[2] = biological target: T1, human macrodomain MacroD2 (Homo sapiens, UniProt A1Z1Q3); assay: HTRF peptide displacement assay, MacroD2; type: binding
T1 sequence (A1Z1Q3 with tags, fused parts or gaps): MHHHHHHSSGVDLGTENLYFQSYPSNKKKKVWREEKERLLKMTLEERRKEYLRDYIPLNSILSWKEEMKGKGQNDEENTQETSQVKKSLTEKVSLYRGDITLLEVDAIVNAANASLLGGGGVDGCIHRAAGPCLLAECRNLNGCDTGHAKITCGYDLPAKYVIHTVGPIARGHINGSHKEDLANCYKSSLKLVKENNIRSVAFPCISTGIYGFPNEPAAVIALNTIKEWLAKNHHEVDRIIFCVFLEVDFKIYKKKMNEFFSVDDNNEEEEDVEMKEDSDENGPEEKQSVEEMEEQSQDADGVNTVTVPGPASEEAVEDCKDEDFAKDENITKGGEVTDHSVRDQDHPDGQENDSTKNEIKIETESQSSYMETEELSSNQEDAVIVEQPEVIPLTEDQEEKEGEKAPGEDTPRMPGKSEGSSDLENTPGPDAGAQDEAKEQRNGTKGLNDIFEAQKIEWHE

Kinetic solubility = conditions: phosphate buffered saline, pH 7.4, aqueous buffer, kinetic from dmso stock
[3] = biological target: SARS-CoV-2 NSP3 macrodomain (Mac1) (Severe acute respiratory syndrome coronavirus 2, UniProt P0DTD1); assay: biochemical; type: binding
human macrodomain Targ1 = biological target: T2, human macrodomain Targ1 (Homo sapiens, UniProt Q9Y530); assay: HTRF peptide displacement assay, Targ1; type: binding
T2 sequence (Q9Y530 with tags, fused parts or gaps): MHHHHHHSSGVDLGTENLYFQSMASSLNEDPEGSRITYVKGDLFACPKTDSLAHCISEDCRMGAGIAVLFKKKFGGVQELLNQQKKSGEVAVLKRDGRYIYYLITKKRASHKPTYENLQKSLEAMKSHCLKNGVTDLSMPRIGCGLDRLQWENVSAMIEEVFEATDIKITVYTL

Caco-2 cells = assay: in vitro; conditions: human, Caco-2, 1 h
Protocol: (§1) Caco-2 cell plates were obtained commercially and were maintained for 21 days at 37°C with 5% CO2. Cells were washed with Hank’s Balanced Salt Solution (HBSS) with 5 mM HEPES for 30 minutes before starting the experiment. Test compound solutions are prepared by diluting DMSO stock into HBSS buffer, resulting in a final DMSO concentration of 0.1%. Prior to the assay, cell monolayer integrity was verified by […] electrical resistance (TEER) to ensure that wells have resistance above the acceptance cut-off (1 kΩ). Transport experiments were initiated by adding test compounds to the apical (75 μl) or basal (250 μl) side. Transport plates were incubated at 37°C in a humidified incubator with 5% CO2. Samples were taken from the donor and acceptor compartments after one hour and analyzed by liquid chromatography with tandem mass spectrometry (LC/MS/MS) using an AB Sciex API 4000 instrument, coupled to a Shimadzu LC-20AD LC Pump system. Samples were separated using a Waters Atlantis T3 dC18 reverse phase HPLC column (20 mm × 2.1 mm) at a flow rate of 0.5 ml/min. The mobile phase consisted of 0.1% formic acid in acetonitrile (solvent A) and 0.1% formic acid in water (solvent B).
(§2) Apparent permeability (Papp) values were calculated using the following equation: Papp=(dQ/dt)/A/C0 where dQ/dt is the initial rate of compound transport across the cell monolayer, A is the surface area of the filter membrane, and C0 is the initial concentration of the test compound, calculated for each direction using a four-point calibration curve by LC/MS/MS.
(§3) Net flux ratio between the two directional transports was calculated by the following equation: Ratio=PappB-A/PappA-B where PappB-A and PappA-B represent the apparent permeability of compounds from the basal-to-apical and apical-to-basal side of the cellular monolayer, respectively. Recovery was calculated based on the compound concentration at the end of the experiment, compared to that at the beginning of the experiment, adjusted for volumes.

in vitro = conditions: human
Protocol: as §1, §2, §3

[4] = crystal soak 10 mM, P43 crystals
[5] = crystal soak 10 mM, DMSO background map

With `CC(c1ccccc1)C(CO)Nc1ncnc2[nH]ccc12` (centres unmarked) [AVI-3669] the microsomal CLint at 1 µM (Microsomal stability; liver microsomes, mouse microsome stability, read-out: CLint (mouse) (µl/min/mg protein), mean) was 166 µL/min/mg, the half-life at 1 µM (Microsomal stability; mouse, microsomes) was 8.3 min and the microsomal CLint at 1 µM (Microsomal stability; mouse, microsomes) was 166 µL/min/mg. The 1-BDC ([1]; PanDDA background density correction) was 0.14, the X-ray crystal structure ([1]; X-ray crystal structure determined (TRUE)) was “TRUE” and the “Pandda run, overall: Hit” value [1, 4] was “TRUE”. The “Pandda run, overall: Modeled” value [1, 4] was “TRUE”, the “PanDDA run, DMSO background map: 1-BDC” value [1, 5] was 0.14 and the “PanDDA run, DMSO background map: Hit” value [1, 5] was “TRUE”. For the same compound, the “Total number of conformations” value ([1]; ligand conformations modeled in Mac1 crystal structure) was 1, the “2*(1-BDC) (%)” value ([1]; occupancy estimate from PanDDA 1-BDC) was 28% and the Binding site ([1]; site of ligand in X-ray crystal structure) was “Adenosine”. The IC50 ([2]; Human MacroD2 HTRF assay, dose-response, read-out: IC50) was over 1000 µM, the “binding to the human macrodomain MacroD2” value ([2]; in words) was “none” and the solubility kinetic at […] (Kinetic solubility) was 529 µM (≈ 149 µg/mL). The Hill slope ([3]; HTRF dose-response fit, Mac1) was 1.2, the Hill slope ([3]; SARS CoV-2 macrodomain HTRF assay, dose-response) was 1.2 and the inhibition at 200 µM ([3]; Single dose, concentration 200 μM, read-out: Average % competition) was 98%. For the same compound, the inhibition at 200 µM ([3]; preliminary screen, compound at 200 μM, mean of 3-4 technical replicates, read-out: % competition in HTRF assay) was 98%, the IC50 (human macrodomain Targ1; Human Targ1 HTRF assay, dose-response, read-out: IC50) was over 1000 µM and the “binding to the human macrodomain Targ1” value (human macrodomain Targ1; in words) was “none”. For the same compound, the “Recover Rate (%)” value (Caco-2 cells) was 93%, the Papp A→B at 1 h (in vitro; Caco-2) was 19.4 ×10⁻⁶ cm/s and the Papp B→A at 1 h (in vitro; Caco-2) was 14.5 ×10⁻⁶ cm/s. It also gave an efflux ratio at 1 h (in vitro; Caco-2, Caco-2 ratio B-A/A-B, net flux ratio) of 0.7 and an efflux ratio at 1 h (in vitro; Caco-2, Ratio (B-A/A-B)) of 0.75.
